Experimental data: patent US6569631B1, “Microplate thermal shift assay for ligand development using 5-(4″dimethylaminophenyl)-2-(4′-phenyl)oxazole derivative fluorescent dyes” (3-Dimensional Pharmaceuticals, Inc., priority 1998, dated 2003)
Read-outs that look alike come from different tables or passages of the source. Values belong to the compound of their own block, whether it stands above or below them. Ends that are not written are not given here.

Columns and labels:
[1] = biological target: T1, chicken muscle pyruvate kinase (Gallus gallus, UniProt P00548); test: Fluorescence signal of reporter dyes on thermal unfolding of pyruvate kinase; settings: wavelengths above 480 nm; excitation 370 nm
T1 construct: purchased Sigma Chemical Co. P6406
Method: A 0.2 mg/mL solution of chicken muscle pyruvate kinase (Sigma Chemical Co., catalog # P6406) was incubated with either 10 mM 1-anilinonaph-thalene-8-sulfonate (1,8-ANS) (FIG. 44, open squares) or 10 mM 5-(4″-dimethylaminophenyl)-2-(4′-phenyl)oxazole sulfonate (Molecular Probes catalogue no. D-12800) (FIG. 44, closed squares) in a 500 μL four-sided quartz cuvette. Fluorescence spectra were recorded using a spectrofluorimeter (Florolog, SPEX/ISA), with the excitation monochromator set to 370 nm, and the excitation and emission bandpass slit widths set at 1 nm, The instrument was operated in front-face collection mode, so that fluorescence was collected from the same face of the cuvette that was illuminated by the exciting light source. Emission spectra of native protein+dye were recorded after mixing the protein and dye solutions at room temperature. Emission spectra of denatured protein and fluorescence dye were recorded after the protein/dye solutions were heated to 75° C. for 2 minutes, and then cooled to room temperature immediately prior to data collection. The spectra shown in FIG. 44 are difference spectra that were calculated by subtracting the native protein fluorescence from the denatured protein fluorescence for each dye at 25° C. […]

thrombin [2] = biological target: T2, thrombin (Homo sapiens, UniProt P00734); test: Fluorescence signal of reporter dyes in 384-well thermal unfolding of thrombin; design: A stock human α-thrombin solution (1.56 mg/mL) from Enzyme Research Labs; purchased Enzyme Research Labs; settings: 100 μM dye; 1 μM thrombin; 500+/−25 nm bandpass filter
Method: A 1 μM thrombin solution was mixed with 5-(4″-dimethylaminophenyl)-2-(4′-phenyl)oxazole sulfonate dye to yield a final concentration of 100 μM 5-(4″-dimethylaminophenyl)-2-(4′-phenyl)oxazole sulfonate. This solution was pipetted into all the wells of a 384-well black thermocycler plate with a final volume of 4 μL per well, and 3 μL of mineral oil was then added to each well. The fluorescence signal from each well was recorded in a closed, black-walld metal box using a cooled CCD camera (SenSys, Photometrix, Inc.) equipped with a 500+/−25 nm bandpass filter. An identical experiment was performed separately, using the same instrument, camera, and filters, except that a final concentration of 100 μM 1,8-ANS was used in place of 5-(4″-dimethylaminophenyl)-2-(4′-phenyl)oxazole sulfonate as the reporter dye.
The ratio of signals from 5-(4″-dimethylaminophenyl)-2-(4′-phenyl)oxazole sulfonate and 1,8-ANS was calculated by averaging the signals of all 384 wells on each plate, and dividing the average signal from 1,8-ANS into that for 5-(4″-dimethylaminophenyl)-2-(4′-phenyl)oxazole sulfonate.

human α-thrombin = biological target: T3, human α-thrombin (Homo sapiens, UniProt P00734); test: Microplate thermal shift screen of biochemical conditions, thrombin stability; settings: NaCl concentration increased from 0 to 0.5 M
T3 construct: A stock human α-thrombin solution (1.56 mg/mL) from Enzyme Research Labs; purchased Enzyme Research Labs
Method: The microplate thermal shift assay was used, with four different fluorophores, to simultaneously screen the effects of multiple pH values, sodium chloride concentrations, and reduction-oxidation compounds on human α-thrombin stability. Thrombin solution was diluted to 1 μM in 50 mM Hepes, pH 7.5, NaCl at either 0.1 M or 0.5 M, 10 mM EDTA, 10 mM CaCl2, 10 mM dithiothreitol, […], and 100 μM 1,8-ANS, 10% (v/v) glycerol, or 0.1% (w/v) polyethylene glycol (PEG) 6000. Reaction volume was 100 μL.
Using equation (1), it is possible to estimate the NaCl binding to be ˜6 mM near the Tm (53° C.) in 50 mM Hepes pH 8.0 buffer (zero and 0.10 M NaCl).

D(II) FGF receptor 1 = test: Microplate thermal shift screen of biochemical conditions, D(II) FGF receptor 1 stability; design: species or system human; settings: NaCl concentration increased from 0.1 to 0.5 M
Method: The microplate thermal shift assay was used to simultaneously screen the effects of multiple biochemical conditions on D(II) FGF receptor 1 stability. The assays were performed by mixing 1 μL of D(II) FGFR1 (from a 500 μM concentrated stock in 50 mM HEPES pH 7.5) with 4 μL of each biochemical condition in wells of a 96-well polycarbonate microtiter plate. Final protein concentration after mixing was 100 μM and final 1,8-ANS concentration was 200 μM. Biochemical conditions were tested as follows: The pH's tested were 5 (Na acetate), 6 (MES), 7 (MOPS), 8 (HEPES), and 9 (CHES), with final buffer concentrations of 50 mM.
The salt concentrations tested were 0.1 or 0.5 M NaCl. Additives were tested in 50 mM MOPS, pH 7, 0.1 M NaCl, at final concentrations of 1 mM (EDTA, dithiothreitol), 10 mM (CaCl2, MgCl2, MgSO4, NiSO4),50 mM (arginine), 100 mM ((NH4)2SO4, LiSO4, Na2SO4, ZnSO4), 5% w/v (polyethylene glycol 6000), and 10% v/v glycerol.
Thermal denaturation profiles were generated as previously described for thrombin, aFGF, Factor D, and Factor Xa, by incremental heating of the microplate followed by a fluorescence reading after each temperature increase. Data were analyzed by non-linear least squares fitting as described previously.

thrombin [3] = biological target: T2, thrombin; settings: 5 mM Tris buffer pH 8.0, 0.1% PEG, 25° C.; read-out: Kd of the Na+ binding site; cited from earlier work
[4] = biological target: T4, heparin binding site of human α-thrombin (Homo sapiens, UniProt P00734); test: Microplate thermal shift assay, ligands binding to the heparin binding site, turbidity signal
T4 construct: A stock human α-thrombin solution (1.56 mg/mL) from Enzyme Research Labs; purchased Enzyme Research Labs
Excerpt: Assays for ligands that bind to the heparin binding site of human α-thrombin are more difficult to perform than assays for ligands that bind to the active site of human α-thrombin. At the heparin binding site, no substrate is hydrolyzed, so no spectrophotometric signal can be amplified for instrumental detection. Heparin activity is usually estimated in biological clotting time assays. […] Thus, heparin binding to human α-thrombin represents the kind of challenge encountered with the vast majority of non-enzyme receptor/ligand binding events, which are commonly observed for hormone/receptor interactions, repressor/DNA interactions, neurotransmitter/receptor interactions, etc. Several heparin-like sulfated oligosaccharides and sulfated naphthalene compounds were assayed by the microplate thermal shift assay. Using the thermal shift assay, it was possible to use a single compound per well to quickly rank the compounds in order of increasing binding affinity, with Kd's ranging over three orders of magnitude (see Table 4). Like the experiment in Example 1, the thermal shift assay results agreed closely with the results obtained through an alternative method, which required a series of laborious (15 to 20 single determinations) fluorescence quench assays over a wide range of concentrations of low MW heparin (Olson, S. T. et al., J. Biol. Chem. 266:6342-6352 (1991)).

[5] = biological target: T5, acidic fibroblast growth factor (aFGF) (Homo sapiens, UniProt P05230); test: Microplate thermal shift assay for ligands binding to aFGF, turbidity signal; settings: for ΔTm: relative to aFGF alone (317.15 °K); for Tm: turbidity signal, aFGF 0.25 mg/mL, ligand 47-200 μM
T5 construct: host or cells: E. coli
Excerpt: The second therapeutic receptor tested in the microplate thermal shift assay was acidic fibroblast growth factor (aFGF), a growth factor that plays a key role in angiogenesis (Folkman, J. et al., J. Biol. Chem. 267:1.0931-10934 (1992)). A synthetic gene for this protein was purchased from R&D Systems (Minneapolis, Minn.), and was cloned and expressed in E. coli using methods similar to those described for basic fibroblast growth factor (bFGF) (Thompson, L. D. et al., Biochemistry 33:3831-3840 (1994); Pantoliano, M. W. et al., Biochemistry 33:10229-10248 (1994); Springer, B. A. et al., J. Biol. Chem. 269:26879-26884 (1994)). Recombinant aFGF was then purified by heparin-sepharose affinity chromatography as described (Thompson, L. D. et al., Biochemistry 33:3831-3840 (1994)). aFGF is also known to bind heparin/heparan, which is a cofactor for mitogenic activity. […] A microplate thermal assay of these compounds was set up in a way similar to that described above for human α-thrombin. […] The affinity constants covered a fairly broad range of binding affinities, with pentosan PSO4 showing the highest affinity.

D(II) FGFR1 = biological target: T6, D(II) FGFR1 (Homo sapiens, UniProt P11362); test: Miniaturized (10 μL) microplate thermal shift assay of D(II) FGFR1; type: binding; settings: aprosulate 300 μM
T6 construct: made in house
T6 sequence (P11362 158-246 limits assumed): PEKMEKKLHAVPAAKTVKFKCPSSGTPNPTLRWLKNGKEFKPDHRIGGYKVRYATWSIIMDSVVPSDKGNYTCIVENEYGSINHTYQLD
Method: Recombinant D(II) FGFR1 was purified from inclusion bodies and purified by affinity chromatography on heparin sepharose. A stock solution of D(II) FGFR1 (15 mg/mL; 1.1 mM) was diluted to 50 μM in assay buffer (50 mM Hepes, pH 7.5, 0.1 M NaCl). The assay volume was 10 μL and the concentration of 1,8-ANS was 250 μM.

[6] = tested on: human urokinase-type plasminogen activator (u-PA); test: Miniaturized microplate thermal shift assay of urokinase; type: binding; settings: 5 μL; MOPS pH 7, NaCl, 1,8-ANS
Excerpt: Another target molecule analyzed was human urokinase-type plasminogen activator (u-PA). U-PA enzymatically converts plasminogen into the active protease plasmin. U-PA is involved in tissue remodeling, cellular migration and metastases. The gene for u-PA was obtained from ATCC (Rockville, Md.) and modified to appropriately express active enzyme in E. coli. u-PA was cloned, overexpressed in E. coli, and purified using procedures similar to those described by Winkler et al. (Biochemistry 25:4041-4045 (1986)). […] The experiment was performed in the miniaturized format in 5 μL well volume. One μL of concentrated CMK-u-PA (13 g/L, 371.4 μM) was added to 4 μL of 62.5 mM MOPS, pH 7, 125 mM NaCl, and 250 μM 1,8-ANS, in multiple wells of a 96-well polycarbonate V-bottom microtiter plate. A thermal denaturation curve was generated as previously described for thrombin, aFGF, D(II)FGFR1, Factor D, and Factor Xa, by incremental heating of the microplate followed by a fluorescence reading after each temperature increase.

T5 sequence (P05230 whole entry, species assumed): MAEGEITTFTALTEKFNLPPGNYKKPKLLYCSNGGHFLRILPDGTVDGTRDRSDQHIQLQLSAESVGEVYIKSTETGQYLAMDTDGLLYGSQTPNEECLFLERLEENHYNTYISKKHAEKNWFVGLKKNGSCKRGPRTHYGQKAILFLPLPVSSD
T1 sequence (P00548 whole entry): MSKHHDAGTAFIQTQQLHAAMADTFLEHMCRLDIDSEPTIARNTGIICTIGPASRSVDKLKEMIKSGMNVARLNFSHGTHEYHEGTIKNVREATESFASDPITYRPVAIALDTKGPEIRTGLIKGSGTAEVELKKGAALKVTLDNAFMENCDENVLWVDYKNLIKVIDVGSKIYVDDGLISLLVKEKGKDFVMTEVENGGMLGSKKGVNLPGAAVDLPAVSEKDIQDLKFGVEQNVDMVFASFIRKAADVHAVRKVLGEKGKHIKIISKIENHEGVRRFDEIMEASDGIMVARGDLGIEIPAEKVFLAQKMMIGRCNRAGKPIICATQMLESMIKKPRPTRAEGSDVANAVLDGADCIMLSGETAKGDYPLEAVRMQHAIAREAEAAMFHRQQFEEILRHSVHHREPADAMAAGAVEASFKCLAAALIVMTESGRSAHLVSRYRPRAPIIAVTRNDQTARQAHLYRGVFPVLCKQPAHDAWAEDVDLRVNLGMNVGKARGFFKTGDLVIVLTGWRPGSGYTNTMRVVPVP

fluorescence signal relative to 1,8-ANS on unfolding of pyruvate kinase [1]: approximately 3.2 fold | signal relative to 1,8-ANS, average of 384 wells (thrombin [2]): 4.25 times
Compound: CN(C)c1ccc(-c2cnc(-c3ccc(S(=O)(=O)O)cc3)o2)cc1 [5-(4″-dimethylaminophenyl)-2-(4′-phenyl)oxazole sulfonate]

Compound: [Cl-].[Na+] [NaCl, sodium chloride]
ΔTm (human α-thrombin): about 12 °C | ΔTm (D(II) FGF receptor 1): about 5 °C

Compound: [Na+] [Na^+]
Kd (thrombin [3]): 30000 ± 3000 µM

Compound: Cc1ccc(C(=O)Nc2ccc(S(=O)(=O)O)c3cc(S(=O)(=O)O)cc(S(=O)(=O)O)c23)cc1NC(=O)c1cccc(NC(=O)Nc2cccc(C(=O)Nc3cc(C(=O)Nc4ccc(S(=O)(=O)O)c5cc(S(=O)(=O)O)cc(S(=O)(=O)O)c45)ccc3C)c2)c1 [Suramin, suramin]
ΔTm ([4]; relative to thrombin alone (329.15 °K)): 11.0 °K | affinity at Tm higher than the affinity of heparin 5000 ([4]; thermal shift assay, Table 4): 5700 fold | Tm ([4]; turbidity signal, 11 μM thrombin, ligand 40-102 μM): 340.15 °K | ΔTm [5]: 13.0 °K | Tm [5]: 330.15 °K

unfolding transition (Tm) in the presence of ligand (D(II) FGFR1): about 320 K | increase of the unfolding transition (D(II) FGFR1; D(II) FGFR1 50 μM, 10 μL): about 8 K
Compound: O=C(NCCCNC(=O)[C@H](OS(=O)(=O)O)[C@@H](OS(=O)(=O)O)[C@H](O[C@@H]1O[C@H](COS(=O)(=O)O)[C@H](OS(=O)(=O)O)[C@H](OS(=O)(=O)O)[C@H]1OS(=O)(=O)O)[C@@H](COS(=O)(=O)O)OS(=O)(=O)O)[C@H](OS(=O)(=O)O)[C@@H](OS(=O)(=O)O)[C@H](O[C@@H]1O[C@H](COS(=O)(=O)O)[C@H](OS(=O)(=O)O)[C@H](OS(=O)(=O)O)[C@H]1OS(=O)(=O)O)[C@@H](COS(=O)(=O)O)OS(=O)(=O)O [aprosulate]

Kd ([5]; equation (1), estimated ΔHu 60.0 kcal/mole, ΔCpu 0.95 kcal/mole-°K, read-out: Kd at Tm): 10.1 µM | Kd ([5]; estimate by equation (3), ΔHL −10.0 kcal/mole, read-out: Kd at 298° K Observed): 3.04 µM | ΔTm [5]: 5.0 °K | Tm [5]: 322.15 °K
Compound: EEEEEEEE

Compound: glu-gly-arg-chloromethylketone [CMK]
Tm of the CMK-u-PA complex [6]: 81 °C
